Experiment [1] has as its target T1, Transcription regulator protein BACH1 (Homo sapiens) (UniProt O14867).
T1 sequence (whole entry): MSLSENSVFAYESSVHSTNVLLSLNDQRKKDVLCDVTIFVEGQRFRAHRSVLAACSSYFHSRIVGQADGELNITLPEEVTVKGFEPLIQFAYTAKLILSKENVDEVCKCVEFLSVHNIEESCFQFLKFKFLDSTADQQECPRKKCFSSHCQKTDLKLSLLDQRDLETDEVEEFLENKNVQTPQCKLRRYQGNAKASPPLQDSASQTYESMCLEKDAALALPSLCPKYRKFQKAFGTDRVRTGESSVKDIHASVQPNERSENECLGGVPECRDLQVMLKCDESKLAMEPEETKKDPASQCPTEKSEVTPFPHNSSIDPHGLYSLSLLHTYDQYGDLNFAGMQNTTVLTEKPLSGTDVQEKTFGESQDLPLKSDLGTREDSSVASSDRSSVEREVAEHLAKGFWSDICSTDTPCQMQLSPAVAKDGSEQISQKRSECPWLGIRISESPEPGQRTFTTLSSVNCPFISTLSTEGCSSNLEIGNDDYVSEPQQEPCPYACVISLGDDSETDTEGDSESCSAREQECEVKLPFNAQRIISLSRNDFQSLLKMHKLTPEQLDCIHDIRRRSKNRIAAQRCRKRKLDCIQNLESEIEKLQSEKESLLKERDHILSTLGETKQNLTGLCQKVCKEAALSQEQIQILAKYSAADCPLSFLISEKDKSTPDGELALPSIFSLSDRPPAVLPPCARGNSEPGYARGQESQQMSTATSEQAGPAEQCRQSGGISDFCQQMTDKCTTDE
As to the kind of experiment: Inhibition of Bach1 in normal human lung fibroblasts assessed as induction of HMOX protein expression by measuring HMOX positive cells level at 0.039 uM incubated for 16 to 18 hrs by immunostaining relative to control DMSO. The arrangement: scale not given: the % may be the effect or the level left.

For experiment [2], the target named is T1, Transcription regulator protein BACH1 (Homo sapiens). Nature of the experiment: Inhibition of Bach1 in normal human lung fibroblasts assessed as induction of HMOX protein expression by measuring HMOX positive cells level at 0.078 uM incubated for 16 to 18 hrs by immunostaining relative to control DMSO. The arrangement: scale not given: the % may be the effect or the level left.

For experiment [3] the target is unchanged. As to the kind of experiment: Inhibition of Bach1 in normal human lung fibroblasts assessed as induction of HMOX protein expression by measuring HMOX positive cells level at 0.156 uM incubated for 16 to 18 hrs by immunostaining relative to control DMSO. Further details: scale not given: the % may be the effect or the level left.
The target is the same in experiment [4]. As to the kind of experiment: Inhibition of Bach1 in normal human lung fibroblasts assessed as induction of HMOX protein expression by measuring HMOX positive cells level at 0.078 uM in presence of 0.03 uM Nrf2 activator DMF incubated for 16 to 18 hrs by immunostaining relative to control DMSO. The arrangement: scale not given: the % may be the effect or the level left.

For experiment [5] the target is unchanged. Nature of the experiment: Inhibition of Bach1 in normal human lung fibroblasts assessed as induction of HMOX protein expression by measuring HMOX positive cells level at 0.156 uM in presence of 0.03 uM Nrf2 activator DMF incubated for 16 to 18 hrs by immunostaining relative to control DMSO. The arrangement: scale not given: the % may be the effect or the level left.

Experiment [6] has the same target. Nature of the experiment: Inhibition of Bach1 in normal human lung fibroblasts assessed as induction of HMOX protein expression by measuring HMOX positive cells level at 0.019 uM in presence of 0.3 uM Nrf2 activator DMF incubated for 16 to 18 hrs by immunostaining relative to control DMSO. The arrangement: scale not given: the % may be the effect or the level left.

Experiment [7] has the same target. Nature of the experiment: Inhibition of Bach1 in normal human lung fibroblasts assessed as induction of HMOX protein expression by measuring HMOX positive cells level at 0.078 uM in presence of 0.3 uM Nrf2 activator DMF incubated for 16 to 18 hrs by immunostaining relative to control DMSO. The arrangement: scale not given: the % may be the effect or the level left.

For experiment [8] the target is unchanged. As to the kind of experiment: Inhibition of Bach1 in normal human lung fibroblasts assessed as induction of HMOX protein expression by measuring HMOX positive cells level at 0.078 uM in presence of 3 uM Nrf2 activator DMF incubated for 16 to 18 hrs by immunostaining relative to control DMSO. Further details: scale not given: the % may be the effect or the level left.

Experiment [9] has the same target. Nature of the experiment: Inhibition of Bach1 in normal human lung fibroblasts assessed as induction of HMOX protein expression by measuring HMOX positive cells level at 0.078 uM in presence of 10 uM Nrf2 activator DMF incubated for 16 to 18 hrs by immunostaining relative to control DMSO. The arrangement: scale not given: the % may be the effect or the level left.

Experiment [10] has the same target. As to the kind of experiment: Inhibition of Bach1 in normal human lung fibroblasts assessed as induction of HMOX protein expression by measuring HMOX positive cells level at 0.156 uM in presence of 10 uM Nrf2 activator DMF incubated for 16 to 18 hrs by immunostaining relative to control DMSO. Further details: scale not given: the % may be the effect or the level left.

Experiment [11] has the same target. As to the kind of experiment: Inhibition of Bach1 in normal human lung fibroblasts assessed as induction of HMOX protein expression by measuring HMOX positive cells level at 0.019 uM in presence of 30 uM Nrf2 activator DMF incubated for 16 to 18 hrs by immunostaining relative to control DMSO. Further details: scale not given: the % may be the effect or the level left.

Experiment [12] has the same target. Nature of the experiment: Inhibition of Bach1 in normal human lung fibroblasts assessed as induction of HMOX protein expression by measuring HMOX positive cells level at 0.039 uM in presence of 30 uM Nrf2 activator DMF incubated for 16 to 18 hrs by immunostaining relative to control DMSO. Further details: scale not given: the % may be the effect or the level left.

Experiment [13] has the same target. As to the kind of experiment: Inhibition of Bach1 in normal human lung fibroblasts assessed as induction of HMOX protein expression at 0.078 uM incubated for 16 to 18 hrs by immunostaining relative to control.
Experiment [14] has the same target. Nature of the experiment: Inhibition of Bach1 in normal human lung fibroblasts assessed as induction of HMOX protein expression at 0.078 uM in presence of 0.03 uM Nrf2 activator DMF incubated for 16 to 18 hrs by immunostaining relative to control.
The target is the same in experiment [15]. As to the kind of experiment: Inhibition of Bach1 in normal human lung fibroblasts assessed as induction of HMOX protein expression at 0.078 uM in presence of 0.1 uM Nrf2 activator DMF incubated for 16 to 18 hrs by immunostaining relative to control.
Experiment [16] has the same target. Nature of the experiment: Inhibition of Bach1 in normal human lung fibroblasts assessed as induction of HMOX protein expression at 0.156 uM in presence of 0.3 uM Nrf2 activator DMF incubated for 16 to 18 hrs by immunostaining relative to control.
The target is the same in experiment [17]. As to the kind of experiment: Inhibition of Bach1 in normal human lung fibroblasts assessed as induction of HMOX protein expression at 0.078 uM in presence of 1 uM Nrf2 activator DMF incubated for 16 to 18 hrs by immunostaining relative to control.
Experiment [18] has the same target. Nature of the experiment: Inhibition of Bach1 in normal human lung fibroblasts assessed as induction of HMOX protein expression at 0.078 uM in presence of 3 uM Nrf2 activator DMF incubated for 16 to 18 hrs by immunostaining relative to control.
Experiment [19] shares this target. As to the kind of experiment: Inhibition of Bach1 in normal human lung fibroblasts assessed as induction of HMOX protein expression at 0.078 uM in presence of 10 uM Nrf2 activator DMF incubated for 16 to 18 hrs by immunostaining relative to control.
Experiment [20] has the same target. As to the kind of experiment: Inhibition of Bach1 in normal human lung fibroblasts assessed as induction of HMOX protein expression at 0.039 uM in presence of 30 uM Nrf2 activator DMF incubated for 16 to 18 hrs by immunostaining relative to control.

As for `Cn1c(Nc2nc3ccc(C(F)(F)F)cc3s2)nc2cc(C(=O)NCCOCCO)ccc21`, the Activity in experiment [1] turned out to be 28%; in [2], 74%; in experiment [3] it was 96.3%; in experiment [4], 33.5%; in experiment [5], 92.5%; in experiment [6], 7.63%. Further, the Activity in experiment [7] was 61.5%; in [8], 90.3%; in experiment [9] it was 97.7%; in [10], 100%; in experiment [11], 84%; in experiment [12], 91.9%. The fold change (FC) in experiment [13] turned out to be 4.34; in [14] it was 2.35; in experiment [15] it was 2.87; in experiment [16] it was 5.17; in experiment [17] it was 3.83; in experiment [18], 4.2. Moreover, the fold change (FC) was 6.52 in [19] and 5.52 in experiment [20].

For the molecule `CN(C)C(=O)CNC(=O)c1ccc2c(c1)nc(Nc1nc3ccc(C(F)(F)F)cc3s1)n2C`, the Activity in experiment [1] turned out to be 2.31%; in experiment [2] it was 7.12%; in experiment [3], 28.6%; in experiment [4], 5.99%; in experiment [5] it was 22.1%; in [6] it was 6.49%. The Activity in [7] is 16.2%; in experiment [8], 81.8%; in experiment [9], 97.2%; in experiment [10], 100%; in experiment [11], 84.2%; in experiment [12] it was 90.4%. Further, the fold change (FC) amounted to 1.59 in [13]; 1.37 in [14]; 1.48 in experiment [15]; 3.06 in experiment [16]; 2.53 in [17]; 4.33 in experiment [18]. For the same molecule, the fold change (FC) in [19] was 6.46; in [20], 4.9.

`CNC(=O)c1ccc2c(c1)nc(Nc1nc3ccc(OC(F)(F)F)cc3s1)n2C`: the fold change (FC) in experiment [13] is 1.92.

In the case of `COCCNC(=O)c1cnc2c(c1)nc(Nc1nc3ccc(OC(F)(F)F)cc3s1)n2C`, the Activity in [1] turned out to be 5.3%; in [2], 8.23%; in experiment [3], 11.3%; in experiment [4], 1.72%; in [5] it was 8.51%; in [6], 8.27%. Further, the Activity in experiment [7] was determined as 10.3%; in experiment [8] it was 55.2%; in experiment [9] it was 94.5%; in [10], 99.7%; in experiment [11], 84.9%; in experiment [12], 87.5%. In addition, the fold change (FC) in experiment [13] worked out at 1.46; in experiment [14], 1.12; in experiment [15], 1.21; in experiment [16], 2.06; in experiment [17] it was 2.29; in [18] it was 3.12. Further, the results for the fold change (FC) in experiment [19] and in [20] were 5.06 and 4.82, respectively.

The values are drawn from ChEMBL document CHEMBL4421728, “Bach1 Inhibitors in Combination with Nrf2 Activators and Pharmaceutical Compositions Thereof” (2017).
